Where two headings read alike, the source gives them in different places.
Assays:
ATM [1] = biological target: T1, ATM (Homo sapiens, UniProt Q13315); test: ATM immune complex protein kinase assay (inhibition by wortmannin); type: biochemical
T1 construct: endogenous in cells; host or cells: cultured cells, lysed and immunoprecipitated with anti-ATM monoclonal antibody
Protocol: (§1) For these experiments, 5X10^6 cells were washed in ice-cold phosphate buffered saline and lysed in 700 µl of 10 mM Tris-HCl (pH 7.5), 150 mM NaCl, 0.2% dodecyl maltoside (Sigma), 5 mM EDTA, 50 mM NaF, 2 mM phenylmethylsulfonylfluoride, 100 µM NaVO4, 2 µg/ml aprotonin (lysis buffer). Freshly prepared cell lysates were incubated for 2 hours at 4°C on a rotator with 10 µl of hybridoma supernatants. Fifty µl of magnetic beads coated with anti-mouse IgG (Dynabeads M-450, DYNAL, Oslo, Norway) were added and the mixture was further rotated at 4°C for 2 hours. Immune complexes were collected using a magnetic stand (DYNAL) and washed 3 times with lysis buffer. For Western blotting analysis, 1/3 of this mixture was loaded on a polyacrylamide-SDS gel which was later blotted onto a nitrocellulose membrane (Nitrocell MFF, Pharmacia Biotech, San Francisco, CA) as previously described [ref 8]. Immune complexes were washed twice with kinase buffer (50 mM Hepes, pH 7.5, 150 mM NaCl, 4 mM MnCl2, 6 mM MgCl2, 10% v/v glycerol, 1 mM DTT, 100 µM NaVO4). Two hundred ng - 1 µg substrate, 10 µCi [32P]ATP and ATP to final concentration of 5 µM were added, and the reaction mixtures were incubated at 30°C for 3-15 minutes. […]
ATM immune complexes were incubated with various concentrations of the drug and washed with the reaction buffer before kinase activity was measured. […]

ATM [2] = test: Kinase activity of ATM immunoprecipitated from cells treated with NCS; type: cell-based, human
Protocol: as §1, with “NaVO4).” for “NaVO4). Two hundred ng - 1 µg substrate, 10 µCi [32P]ATP and ATP to final concentration of 5 µM were added, and the reaction mixtures were incubated at 30°C for 3-15 minutes.”
Kinase activity was assayed using the p53-N47 substrate. The histogram presents quantitation of the data from the top panel (B). […]
U: untreated cells. The curve presents quantitation of the data from the top panel.

T1 sequence (Q13315 whole entry): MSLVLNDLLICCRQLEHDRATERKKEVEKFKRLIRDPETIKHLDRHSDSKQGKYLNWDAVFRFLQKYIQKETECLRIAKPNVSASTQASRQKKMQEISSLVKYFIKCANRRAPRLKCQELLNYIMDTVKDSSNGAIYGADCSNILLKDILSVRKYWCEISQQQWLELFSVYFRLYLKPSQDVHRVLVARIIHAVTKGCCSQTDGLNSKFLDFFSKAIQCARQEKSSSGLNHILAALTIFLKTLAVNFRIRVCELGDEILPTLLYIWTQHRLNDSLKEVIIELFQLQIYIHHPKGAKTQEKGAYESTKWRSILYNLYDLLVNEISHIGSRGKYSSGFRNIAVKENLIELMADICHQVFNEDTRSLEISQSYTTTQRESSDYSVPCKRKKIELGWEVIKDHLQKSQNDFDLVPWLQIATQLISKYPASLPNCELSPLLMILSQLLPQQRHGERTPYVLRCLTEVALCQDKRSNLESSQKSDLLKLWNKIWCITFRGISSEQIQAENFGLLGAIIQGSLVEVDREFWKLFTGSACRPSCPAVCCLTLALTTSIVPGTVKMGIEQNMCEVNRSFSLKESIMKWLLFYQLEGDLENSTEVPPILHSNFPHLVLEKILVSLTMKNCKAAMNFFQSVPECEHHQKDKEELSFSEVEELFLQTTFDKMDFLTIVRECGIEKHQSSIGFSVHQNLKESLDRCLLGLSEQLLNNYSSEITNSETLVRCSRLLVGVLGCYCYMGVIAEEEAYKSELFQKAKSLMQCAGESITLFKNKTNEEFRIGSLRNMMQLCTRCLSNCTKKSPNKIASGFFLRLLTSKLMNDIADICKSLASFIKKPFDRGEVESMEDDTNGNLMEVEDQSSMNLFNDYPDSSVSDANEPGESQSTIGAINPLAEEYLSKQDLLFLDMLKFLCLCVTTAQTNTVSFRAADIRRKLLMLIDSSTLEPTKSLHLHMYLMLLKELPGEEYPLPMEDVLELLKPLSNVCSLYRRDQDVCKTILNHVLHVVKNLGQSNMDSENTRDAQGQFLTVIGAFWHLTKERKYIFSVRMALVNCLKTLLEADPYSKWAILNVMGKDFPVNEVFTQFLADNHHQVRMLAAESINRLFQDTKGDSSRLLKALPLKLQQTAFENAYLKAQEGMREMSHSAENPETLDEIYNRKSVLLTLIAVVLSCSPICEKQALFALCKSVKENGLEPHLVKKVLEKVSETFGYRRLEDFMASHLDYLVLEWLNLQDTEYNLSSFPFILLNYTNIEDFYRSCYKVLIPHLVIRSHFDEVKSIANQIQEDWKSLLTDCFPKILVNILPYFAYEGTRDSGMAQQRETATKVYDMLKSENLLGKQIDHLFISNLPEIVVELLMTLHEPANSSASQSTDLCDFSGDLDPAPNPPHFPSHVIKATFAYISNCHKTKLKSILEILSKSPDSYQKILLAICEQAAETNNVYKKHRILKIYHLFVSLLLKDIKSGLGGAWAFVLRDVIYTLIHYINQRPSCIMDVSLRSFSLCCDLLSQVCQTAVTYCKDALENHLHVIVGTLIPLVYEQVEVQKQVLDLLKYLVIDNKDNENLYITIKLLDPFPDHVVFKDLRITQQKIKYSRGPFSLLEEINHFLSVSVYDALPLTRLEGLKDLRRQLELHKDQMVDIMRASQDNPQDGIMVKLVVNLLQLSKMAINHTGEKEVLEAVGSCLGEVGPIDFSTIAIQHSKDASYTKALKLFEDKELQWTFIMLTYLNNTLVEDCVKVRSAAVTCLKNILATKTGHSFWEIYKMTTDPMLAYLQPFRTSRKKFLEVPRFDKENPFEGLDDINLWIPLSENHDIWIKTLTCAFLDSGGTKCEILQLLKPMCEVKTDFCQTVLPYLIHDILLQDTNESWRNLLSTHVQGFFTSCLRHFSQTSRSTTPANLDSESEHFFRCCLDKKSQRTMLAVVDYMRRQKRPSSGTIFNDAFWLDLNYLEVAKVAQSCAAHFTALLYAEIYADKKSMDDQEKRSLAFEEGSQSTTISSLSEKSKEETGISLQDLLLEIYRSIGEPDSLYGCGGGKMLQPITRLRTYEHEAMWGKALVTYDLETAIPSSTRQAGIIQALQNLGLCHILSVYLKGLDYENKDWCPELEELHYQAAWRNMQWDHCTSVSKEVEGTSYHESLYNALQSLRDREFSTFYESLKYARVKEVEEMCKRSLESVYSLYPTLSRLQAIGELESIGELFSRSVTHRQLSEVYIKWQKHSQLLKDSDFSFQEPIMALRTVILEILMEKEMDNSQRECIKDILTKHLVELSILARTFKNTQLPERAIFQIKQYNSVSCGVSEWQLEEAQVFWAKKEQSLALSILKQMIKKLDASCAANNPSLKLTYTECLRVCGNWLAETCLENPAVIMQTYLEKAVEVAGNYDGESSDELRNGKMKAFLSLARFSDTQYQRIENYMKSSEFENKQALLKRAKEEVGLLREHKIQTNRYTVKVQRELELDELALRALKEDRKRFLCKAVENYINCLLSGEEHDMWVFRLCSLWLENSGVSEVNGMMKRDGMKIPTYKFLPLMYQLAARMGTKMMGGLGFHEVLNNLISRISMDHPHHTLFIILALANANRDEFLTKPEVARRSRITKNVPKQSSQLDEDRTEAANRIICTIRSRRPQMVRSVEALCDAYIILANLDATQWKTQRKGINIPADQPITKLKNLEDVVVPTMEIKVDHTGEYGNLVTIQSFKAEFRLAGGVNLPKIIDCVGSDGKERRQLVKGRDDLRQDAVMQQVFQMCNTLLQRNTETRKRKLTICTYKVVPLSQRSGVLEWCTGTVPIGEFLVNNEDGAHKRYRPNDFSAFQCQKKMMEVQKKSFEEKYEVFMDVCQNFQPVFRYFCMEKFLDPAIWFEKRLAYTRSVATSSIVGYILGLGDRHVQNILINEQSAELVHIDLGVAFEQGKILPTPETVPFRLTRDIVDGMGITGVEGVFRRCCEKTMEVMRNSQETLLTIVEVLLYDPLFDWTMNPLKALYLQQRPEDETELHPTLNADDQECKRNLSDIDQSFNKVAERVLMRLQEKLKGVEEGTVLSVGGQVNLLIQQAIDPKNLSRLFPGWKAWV

Compound | IC50 (ATM [1]) [nM] | IC50 (ATM [1]; ATM immune complexes exposed to wortmannin for 30 minutes and washed before kinase assay, PHAS-I as substrate, activity normalized to amount of ATM protein, read-out: IC50 (sensitivity of ATM-associated kinase activity to wortmannin)) [nM] | maximal enhancement of ATM's activity compared to its basal activity (ATM [2]; nine experiments, ATM immunoprecipitated from cells after NCS treatment, p53-N47 substrate) [fold] | time of second enhancement of ATM's activity following treatment (ATM [2]; time course after NCS (50 ng/ml), Figure 3B)
COC[C@H]1OC(=O)c2coc3c2[C@@]1(C)C1=C(C3=O)[C@@H]2CCC(=O)[C@@]2(C)C[C@H]1OC(C)=O [wortmannin] | 80 | 100 | – | –
neocarzinostatin [NCS] | – | – | 4.4±0.8 | about 120 minutes

Source: patent publication EP0982318A2, “Enchanced phosphorylation of P53 by ATM in response to DNA damage” (RAMOT UNIVERSITY AUTHORITY FOR APPLIED RESEARCH & …, priority 1998, dated 2000)
